Results taken from a melting point compilation (Tetko et al.; mined from patent text by program, amines drawn as free bases though some values may be those of a salt).

Row | SMILES | melting point [°C]
1 | CNc1cccc(Cl)n1 | 63.5 to 64.5
2 | COc1cc(C=CC=O)ccc1OCc1csc(-c2ccccc2)n1 | 115 to 116
3 | COc1cc(Nc2c(C#N)cnc3cc(-c4ccc(CN5CCOCC5)cc4)c(OC)cc23)c(Cl)cc1Cl | 108 to 110
4 | Cn1nc(C(F)(F)F)cc1Oc1cccc(-c2nc(C(F)(F)C(F)(F)F)no2)n1 | 109 to 110
5 | COc1ccc(C(CBr)(OC)OC)cc1 | 52 to 53
6 | CC(C)(C)c1ccc(N2C[C@H](Cn3ccnn3)OC2=O)cc1 | 140 to 142
7 | COc1ccc(N2CCN(Cc3cn4cc(Cl)ccc4n3)CC2)cc1 | 111 to 112
8 | Cc1cc(=O)oc2cc(NCc3ccccc3)ccc12 | 174 to 176
9 | CC(=O)Nc1nc2c(Oc3cc(-c4ccc(Br)cc4)ncn3)cccc2s1 | 271 to 272
10 | COC(=O)c1ccnc(-c2cccc3cc(Cc4cc(F)cc(Cl)c4)sc23)c1 | 102 to 103
11 | CCNc1cc(-c2c[nH]c(N)n2)ccn1 | 200 to 202
12 | O=C(CCC(CCC(=O)OCc1ccccc1)(CCC(=O)OCc1ccccc1)[N+](=O)[O-])OCc1ccccc1 | 95 to 96
13 | N#Cc1c[nH]c(Cl)c1-c1cccc(F)c1 | 158 to 161
14 | COc1ccc(OC)c2c(Nc3ccc4cn[nH]c4c3)c(C#N)cnc12 | 302 to 305
15 | Cc1nnc2n1-c1sc(CCc3ccc(OC(C)C)cc3)cc1C(c1ccccc1Cl)=NC2 | 121 to 124
16 | O=C(c1ccc(F)cc1)c1cccc(C#Cc2cccc(C(=O)c3ccc(F)cc3)c2)c1 | 205 to 206
17 | Cn1ncc(N(CCCCl)Cc2ccccc2)c(Cl)c1=O | 92 to 93
18 | O=C(N[C@@H](Cc1ccccc1)[C@@H](O)[C@H](O)[C@H](Cc1ccccc1)NC(=O)OCc1ccccc1)OCc1ccccc1 | 215 to 216
19 | COc1ccc(S(=O)(=O)c2cnc(C)nc2Cc2c(C)cc(C)cc2C)cc1 | 150 to 152
20 | CC(C)(C)[Si](C)(C)Oc1ccc2c(c1)Oc1ccccc1C2=C1C2CC3CC(C2)CC1C3 | 137
21 | OCC1OC(n2cnc3c(NCCc4cn(Cc5ccc(Cl)cc5)c5ccccc45)ncnc32)C(O)C1O (configuration not stated) | 181
22 | O=C1c2ccccc2C(O)(c2ccccc2)N1CCc1ccc(O)cc1 (configuration not stated) | 188
23 | CC1(C)CCC(C)(C)c2cc(-c3cc(-c4ccc(C(=O)O)cc4)ccc3OCc3ccccc3)ccc21 | 241 to 244
24 | N#Cc1ccc(-c2cc3c(Cl)ncnc3[nH]2)cc1 | 296 to 297
25 | O=C1CCN(c2ccncn2)CC1 | 61 to 65

Row | SMILES | melting point [°C]
26 | O=C(/C=C/c1ccccc1)NC1CCN(CCC2CCOc3ccccc32)CC1 (configuration not stated) | 168 to 170
27 | O=C(COc1cc(-c2ccc(Cl)cc2)nc2ccccc12)N1CCSCC1 | 117
28 | N#Cc1cc(F)ccc1N1CCNCC1 | 83 to 83.5
29 | CC(C)NC(=O)Nc1cc(-c2ccnc3c(C(=O)c4cccs4)cnn23)ccc1F | > 200
30 | CCOC(OCC)c1cc(NC(c2ccccc2)(c2ccccc2)c2ccccc2)c(F)c(CC2CC2)n1 | 120 to 121
31 | c1c(NC2CCCC2)nc(NC2CCCC2)nc1N1CCNCC1 | 142 to 148
32 | Cc1noc(-c2cc3c4ccccc4n(CCCCl)c3cn2)n1 | 180 to 185
33 | COC(=O)c1c(Oc2ccc(Cl)cc2[N+](=O)[O-])c2ccccc2n1Cc1ccccc1 | 120 to 121
34 | Cc1nc2c(N)nc3ccccc3c2n1CC(C)(C)C(N)=O | 284 to 287
35 | Cc1cc(-c2csc(N)n2)on1 | 208 to 210
36 | COc1cc(C2C3=C(COC3=S)N(Cc3ccccc3)c3cc4c(cc32)OCO4)cc(OC)c1OC (configuration not stated) | 130
37 | CCCCCN1C(=O)C2(COc3cc4c(cc32)OCCO4)c2ccccc21 (configuration not stated) | 111 to 113
38 | CC(=O)C(C#N)c1ccc(F)c(Cl)c1 (configuration not stated) | 133 to 134
39 | O=C(Nc1ccccc1)c1cc(NC(=S)Nc2cc(Cl)cc(Cl)c2)ccc1F | 195 to 196
40 | Oc1ccccc1-c1nc2sc(-c3ccccc3O)nc2s1 | 300
41 | Cn1cnc2c(Cl)nccc21 | 127 to 131
42 | COc1ccc2nc3c(c(Cl)c2c1)C(=O)c1ccccc1-3 | 232 to 234
43 | CCCCNCc1nc(-c2ccc3c(c2)Nc2ccccc2S3)cs1 | 139 to 141
44 | CCCc1cc2c(cc1O)CCO2 | 73 to 74
45 | CC(C)NCC(O)COc1ccc2c(c1)C1CCC2c2ccccc21 (configuration not stated) | 126 to 127
46 | S=C=Nc1ccc(Nc2ccncc2)cc1 | 195 to 196
47 | O=C(OCC1CC1)c1ncn2c1[C@@H]1CCN1C(=O)c1cc(F)ccc1-2 | 171 to 172
48 | O=C(CNC(=O)c1ccc(C2=NOC(c3cc(Cl)cc(C(F)(F)F)c3)(C(F)(F)F)C2)c2ccccc12)NCC(F)(F)F (configuration not stated) | 107 to 108
49 | CCN1CCC2(c3cccc(O)c3)Cc3[nH]c(C(=O)Nc4ccccc4)c(C)c3CC2C1 (configuration not stated) | 271 to 272

Further lines, results first:

Row | melting point [°C] | SMILES
50 | 149 | Cc1cc2ccccn2c1C(=O)c1ccc([N+](=O)[O-])cc1
51 | 45 to 48 | CC(C)N=C(NC(C)C)ON=C1CCCCC1
52 | 163 to 164 | Cc1cc(C(=O)Nc2cccc(C3CN4CCSC4=N3)c2)n(C)n1 (configuration not stated)
53 | 196 to 197 | CC(C)C(CCl)NC(=O)c1nsc2ccc(-n3c(=O)cc(C(F)(F)F)n(C)c3=O)cc12 (configuration not stated)
54 | 194 to 195 | CC(C)(C)OC(=O)N[C@@H]1C(=O)N2C(C(=O)OC(C)(C)C)=C(C=O)CC[C@H]12
55 | 64 to 66 | CC(C)(C)c1cc(C(=O)Oc2ccc(Cl)c(N)c2)cc(C(C)(C)C)c1O
56 | 168 to 170 | CC(C)N(Cc1c(-c2ccccc2)sc(N2C(=O)c3ccccc3C2=O)c1C(=O)c1ccc(Cl)cc1)C(C)C
57 | 207 to 208 | COc1cc(CN(C)c2ncc(C(=O)NO)cn2)cc(C(=O)Nc2ccc(Cl)c(-c3nc4cc(N(C)C)ccc4[nH]3)c2)c1
58 | 122 to 123 | O=C(O)COCc1nn(-c2ccc(Cl)cc2)c2c1CCC2
59 | 128 to 129 | CC(C)n1c(CCC2C[C@@H](O)CC(=O)O2)c(-c2ccc(F)cc2)c(-c2ccccc2)c1C(=O)Nc1ccccc1 (some centres not stated)
60 | 159 | O=C(O)c1ccccc1Oc1ccc(Cl)cn1
61 | 162 to 164 | CC(=O)C1CCC2C3CCC4=CC(=O)C=CC4(C)C3C(O)CC12CO[N+](=O)[O-] (configuration not stated)
62 | 244 to 246 | CC(=O)Nc1c(C(=O)c2ccccc2)[nH]c2cc(C#N)ccc12
63 | 125 to 131 | COC(=O)c1cccc(F)c1C=NC(C)(C(N)=O)C(C)C (configuration not stated)
64 | 269 | CN(c1cccc2cc(-c3nccs3)[nH]c12)S(=O)(=O)c1ccsc1C(N)=O
65 | 353 to 355 | O=c1[nH][nH]c(=O)c2nc3cc(Cl)ccc3cc12
66 | 214 to 215 | CCc1ccc(Cl)c(S(=O)(=O)NC(=O)c2cn3cc(C(F)(F)F)cc(Cl)c3n2)c1
67 | 158 to 163 | O=C(O)CCc1ccc(OCCn2c(=O)sc3cc(Cc4ccccc4)ccc32)cc1
68 | 194 to 197 | O=C1CC(c2csc(-n3ccnc3)n2)=Nc2ccc(-c3ccccc3F)cc2N1
69 | 176 | O=C(O)C(c1ccc2c(c1)OCO2)n1nc(C2CC2)cc(-c2ccccc2)c1=O (configuration not stated)
70 | 217 to 219 | Cc1ccc(NC(=O)Nc2ccc(Oc3cc(Cl)ncn3)cc2)cc1
71 | 258 to 260 | CC(=NNc1ccc(C2=NNC(=O)CC2)cc1)c1ccnnc1
72 | 196 | CCOC(=O)C1=CC(C(=O)c2cc(Cl)c(C)cc2O)=CN2CCc3c([nH]c4ccccc34)C12C(=O)OCC (configuration not stated)
73 | 79 to 83 | Oc1ccc(OCc2nnc(C3CC3)s2)cc1

Row | melting point [°C] | SMILES
74 | 209 to 210 | CN1CC(C(=O)c2nc(Cc3ccc(F)cc3)co2)=C(O)C1=O
75 | 173 to 175 | Cc1cc(=O)c(OCc2ccccc2)c(C(=O)O)o1
76 | 164 to 165 | CCCCn1c(C(=O)c2cc(C)cc(C=CC#N)c2)c(C(C)C)c(=O)[nH]c1=O
77 | 239 to 241 | COC12C=CC(CC1)C1=C2C(=O)c2c(O)ccc(O)c2C1=O (configuration not stated)
78 | 119 to 120 | CCOC(=O)c1cc2c(nc1C)C(=Cc1ccco1)CCC2
79 | 102 | C=C(C)C(=O)OC1CC(=O)NC1=O (configuration not stated)
80 | 109 to 110 | CCOC(=O)CC1c2ccccc2C(=O)N1c1ccccc1 (configuration not stated)
81 | 157 to 158 | CCCN(C(=O)COc1c(OC)cccc1OC)C1CCc2c(ccc(O)c2O)C1 (configuration not stated)
82 | 168 | CC(=O)c1ccc(C2=NC[C@@H](OC(=O)Nc3ccccc3)[C@H](c3ccccc3)O2)cc1 (racemic)
83 | 108 to 110 | CC1(C)CN(S(=O)(=O)c2ccccc2F)c2cccc(Br)c2O1
84 | 165 to 167 | COc1ccc(C(=O)Nc2ccc(C3(CNC(=O)C(C)(C)C)CCCC3)cc2)cc1OC
85 | 75 to 77 | CC(C)C[C@H](NC(=O)c1ccc2c(c1)Nc1ccccc1S2)C(=O)N1CCC2(C1)OCCO2
86 | 214 to 216 | CCOc1ccc(C(C)=O)cc1C(=O)Nc1c(C)cccc1C(N)=O
87 | 265 | COCc1csc2c(C(=O)O)c(=O)c3cc4c(cc3n12)OCO4
88 | > 200 | N#Cc1c(N2CCc3ccccc3CC2)nc(CC(N)=O)[nH]c1=O
89 | 142 to 144 | CCOC(=O)c1cc2c(OCC3CO3)cccc2[nH]1 (configuration not stated)
90 | 193 to 195 | Cc1nc(-c2ccc(C(=O)N3Cc4cccn4Cc4ccccc43)cc2)n(C)n1
91 | 56 to 61 | O=C(NCCCCCCOC(=O)N1CCC(OC(=O)N2CCCCC2)CC1)Oc1ccc(Oc2ccccc2)cc1
92 | 227 to 228 | Cc1cc(C(N)=O)cc([N+](=O)[O-])n1
93 | 138 to 139 | CCOC(=O)N1CCNC1=Nc1ccc(Cl)cc1Cl
94 | 205 to 206 | CC(C)(C)c1cc(CC#Cc2ccc(C(=O)O)c(O)c2)cc(C(C)(C)C)c1O
95 | 167 to 170 | CC1=C(C(=O)OCC2COc3ccccc3O2)C(c2c(F)c(F)c(F)c(F)c2F)C2=C(CNCC2=O)N1 (configuration not stated)
96 | 159 to 160 | COCc1cc2c(s1)CCc1cc(=O)n(-c3ccc(Cl)cc3)nc1-2
97 | 175 to 177 | CC1(C)COC(=O)[C@H]1NC(=O)[C@@H](CC(=O)OCc1ccccc1)n1ccc(-c2ccc(-c3ccncc3)cc2)c1
